These results are taken from US20080119513A1, “Sulfonamide Derivative Selectively Inhibiting Mmp-13” (priority 2004, published 2008).

Holding throughout (type): biochemical
For one experiment, the target named is T1, MMP-2 (Homo sapiens, UniProt P08253).
T1 sequence (P08253 110-660): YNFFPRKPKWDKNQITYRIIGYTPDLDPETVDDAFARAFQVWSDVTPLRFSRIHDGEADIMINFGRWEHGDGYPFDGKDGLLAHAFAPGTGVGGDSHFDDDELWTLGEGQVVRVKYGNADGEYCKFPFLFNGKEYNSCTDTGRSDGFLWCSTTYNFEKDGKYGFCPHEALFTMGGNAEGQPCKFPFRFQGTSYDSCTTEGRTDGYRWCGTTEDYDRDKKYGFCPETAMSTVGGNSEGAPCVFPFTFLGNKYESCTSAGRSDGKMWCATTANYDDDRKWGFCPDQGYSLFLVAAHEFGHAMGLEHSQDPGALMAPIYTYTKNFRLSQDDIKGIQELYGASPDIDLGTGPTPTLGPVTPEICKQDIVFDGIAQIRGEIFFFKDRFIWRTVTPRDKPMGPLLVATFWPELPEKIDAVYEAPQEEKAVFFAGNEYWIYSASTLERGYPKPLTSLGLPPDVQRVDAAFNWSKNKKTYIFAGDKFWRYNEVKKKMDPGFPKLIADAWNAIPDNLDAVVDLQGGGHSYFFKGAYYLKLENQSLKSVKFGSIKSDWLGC
As to the kind of experiment: Assay for inhibitory activities on MMPs (fluorogenic peptide substrate), MMP-2. On the procedure:
MMP-2 was purchased from Calbiochem-Novabiochem International, Inc.
(§1) The enzymatic activity on MMPs was analyzed by the method described in “C. Graham Knight, Frances Willenbrock and Gillian Murphy: A novel coumarin-labelled peptide for sensitive continuous assays of the matrix metalloproteinases: FEBS LETT., 296, (1992), 263-266”. The substrate: MOCAc-Pro-Leu-Gly-Leu-A2Pr(DNP)-Ala-Arg-NH2 was purchased from Peptide Institute, Inc., Osaka, Japan. The measurement of the inhibitory activities (IC50) was carried out by the following four methods;
(§2) (A) Reaction with substrate, enzyme (MMPs) and inhibitor
(§3) (B) Reaction with substrate and inhibitor, without enzyme
(§4) (C) Reaction with substrate and enzyme (MMPs), without inhibitor
(§5) (D) Reaction with substrate only
(§6) IC50 values were calculated by using the following formula and each fluorescence values of above four methods (A to D).
(§7) % inhibition={1-(A−B)/(C−D)}×100
(§8) IC50 means the concentration required to inhibit 50% of the enzyme activity.
(§9) The value of inhibitory activity against MMP-2, MMP-8, MMP-9, MMP-12, and MMP-13 measured by above mentioned methods are shown in Table 25 and 26.

In a further experiment the target is T2, MMP-13 (Homo sapiens, UniProt P45452).
T2 construct: catalytic domain (^104Tyr˜^267Gly) was amplified with RT-PCR; His-tag; enterokinase digestion-site
Kind of experiment: Assay for inhibitory activities on MMPs (fluorogenic peptide substrate), MMP-13. As for the experimental part:
In regard to MMP-13, mRNA was prepared from carcinoma cell SW1353 derived from human cartilage stimulate by IL-1 and TNF, and catalytic domain (^[…]) was amplified with RT-PCR. This was cloned in Escherichia coli expression vector […] inserted with His-tag sequence and enterokinase digestion-site, induced and expressed by IPTG (Isopropyl-β-D-thiogalactopyranoside) and expressed in an insoluble fraction. Isolation of MMP-13 from an insoluble fraction was carried out by dissolving in modifier (6 M urea) by a usual method and purification with metal chelate chromatography (Ni […] Sepharose). And then removing modifier (6 M urea) with dialyze and refolding of the enzyme spontaneously gave activated MMP-13. The enzymatic activity on MMPs was analyzed by the method described in “C. Graham Knight, Frances Willenbrock and Gillian Murphy: A novel coumarin-labelled peptide for sensitive continuous assays of the matrix metalloproteinases: FEBS LETT., 296, (1992), 263-266”. The substrate: MOCAc-[…] was purchased from Peptide Institute, Inc., Osaka, Japan. The measurement of the inhibitory activities (IC50) was carried out by the following four methods; (A) Reaction with substrate, enzyme (MMPs) and inhibitor (B) Reaction with substrate and inhibitor, without enzyme (C) Reaction with substrate and enzyme (MMPs), without inhibitor (D) Reaction with substrate only IC50 values were calculated by using the following formula and each fluorescence values of above four methods (A to D). % inhibition={1-(A-B)/(C-D)}×100 IC50 means the concentration required to inhibit 50% of the enzyme activity. The value of inhibitory activity against MMP-2, MMP-8, MMP-9, MMP-12, and MMP-13 measured by above mentioned methods are shown in Table 25 and 26.

In a further experiment the target is T3, MMP-12 (Homo sapiens, UniProt P39900).
T3 construct: In regard to MMP-12, catalytic domain (^100Phe˜^263Gly) was amplified with RT-PCR; His-tag; enterokinase digestion-site
Kind of experiment: Assay for inhibitory activities on MMPs (fluorogenic peptide substrate), MMP-12. As for the experimental part: In regard to MMP-12, catalytic domain (^100Phe˜^263Gly) was amplified with RT-PCR from Human Placenta Total RNA. This was cloned in Escherichia coli expression vector pTrc99AHE inserted with His-tag sequence and enterokinase digestion-site, induced and expressed by IPTG (Isopropyl-β-D-thiogalactopyranoside) and expressed in an insoluble fraction. Isolation of MMP-12 from an insoluble fraction was carried out by dissolving in modifier (6 M urea) by a usual method and purification with metal chelate chromatography (Ni Chelateing Sepharose). And then removing modifier (6 M urea) with dialysis and refolding of the enzyme spontaneously gave activated MMP-12.
as §1, §2, §3, §4, §5, §6, §7, §8, §9

In the next experiment the target is T4, MMP-8 (Homo sapiens, UniProt P22894).
T4 construct: In regard to MMP-8, catalytic domain (^99Phe˜^262Gly) was amplified with PCR; His-tag; enterokinase digestion-site
Kind of experiment: Assay for inhibitory activities on MMPs (fluorogenic peptide substrate), MMP-8.
Description: In regard to MMP-8, catalytic domain (^99Phe˜^262Gly) was amplified with PCR using commercial available Human Bone Marrow cDNA. This was cloned in Escherichia coli expression vector pTrc99AHE inserted with His-tag sequence and enterokinase digestion-site, induced and expressed by IPTG (Isopropyl-β-D-thiogalactopyranoside) and expressed in a insoluble fraction (Than F. Ho, M. Walid Qoronfleh, Robert C. Wahl, Trica A. Pulvino, Karen J. Vavra, Joe Falvo, Tracey M. Banks, Patricia G. Brake and Richard B. Ciccarelli: Gene expression, purification and characterization of recombinant human neutrophil collagenase. Gene 146, (1994) 297-301. It was prepared by the method in a slight modification). Isolation of MMP-8 from an insoluble fraction was carried out by dissolving in modifier (6 M urea) by a usual method and purification with metal chelate chromatography. And then removing modifier (6 M urea) with dialysis and refolding of the enzyme spontaneously gave activated MMP-8.
as §1, §2, §3, §4, §5, §6, §7, §8, §9

A further experiment concerns the target MMP-9 (Homo sapiens, UniProt P14780). As to the kind of experiment: Assay for inhibitory activities on MMPs (fluorogenic peptide substrate), MMP-9.
Description: MMP-9 was isolated and purified by the procedure of Y. Okada et al. (Yasunori Okada, Yukio Gonoji, Katsumi Naka, Katsuro Tomita, Isao Nakanishi, Kazushi Iwata, Kyoko Yamashita, and Taro Hayakawa: Matrix metalloproteinase 9 (92-kDa gelatinase/type IV collagenase) from HT1080 human fibrosarcoma cells. Purification and activation of the precursor and enzymic properties, J. Biol. Chem., 1992, 267, 21712-21719) in combination with other following methods: 1) Yasunori Okada, Tatsuhisa Morodomi, Jan J, Enghild, Ko Suzuki, Atsushi Yasui, Isao Nakanishi, Guy Salvesen and Hideaki Nagase: Matrix metalloproteinase 2 from human rheumatoid synovial fibroblasts. Purification and activation of the precursor and enzymic properties, Eur. J. Biochem., 1990, 194, 721-730; 2) Robin V Ward, Rosalind M Hembry, John J Reynolds and Gillian Murphy: The purification of tissue inhibitor of metalloproteinase-2 from its 72 kDa progelatinase complex. Biochem. J., 1991, 278, 179-187. In detail, human fibrosarcoma ATCC HT1080 cell line was cultured to confluent in Dulbecco's Modified Medium (DMEM) containing 10% fetal-calf serum at 37° C. for 48 hours. Subsequently, the medium of confluent culture was changed to serum-free DMEM medium. To obtain MMP-9, phorbol-12-myristate-13-acetate (TPA) must be added to this serum-free DMEM medium at a concentration of 50 ng/ml. The TPA-treated medium was centrifuged at 3000 rpm for 15 min, and the supernatant was concentrated to 450 ml by a Toyo-Roshi UP-20 apparatus with an ultrafiltration membrane. Then, proMMP-9 in this concentrated solution was purified by using columns of Gelatin-Sepharose and Concanavalin A-Sepharose. The pool containing proMMP-9 was dialyzed, concentrated (Toyo-Roshi UP-20) and applied to columns of Sephacryl S-200 and Green A matrix for the separation from TIMPs. The obtained proMMP-9 fraction was activated by TPCK-Trypsin (Final conc.: 3 μg/501 React Mix.).
as §1, §2, §3, §4, §5, §6, §7, §8, §9

SMILES strings stand for the structures. A value given as a limit tells only on which side of the number the result lay.

MMP-9, sequence (P14780 107-707): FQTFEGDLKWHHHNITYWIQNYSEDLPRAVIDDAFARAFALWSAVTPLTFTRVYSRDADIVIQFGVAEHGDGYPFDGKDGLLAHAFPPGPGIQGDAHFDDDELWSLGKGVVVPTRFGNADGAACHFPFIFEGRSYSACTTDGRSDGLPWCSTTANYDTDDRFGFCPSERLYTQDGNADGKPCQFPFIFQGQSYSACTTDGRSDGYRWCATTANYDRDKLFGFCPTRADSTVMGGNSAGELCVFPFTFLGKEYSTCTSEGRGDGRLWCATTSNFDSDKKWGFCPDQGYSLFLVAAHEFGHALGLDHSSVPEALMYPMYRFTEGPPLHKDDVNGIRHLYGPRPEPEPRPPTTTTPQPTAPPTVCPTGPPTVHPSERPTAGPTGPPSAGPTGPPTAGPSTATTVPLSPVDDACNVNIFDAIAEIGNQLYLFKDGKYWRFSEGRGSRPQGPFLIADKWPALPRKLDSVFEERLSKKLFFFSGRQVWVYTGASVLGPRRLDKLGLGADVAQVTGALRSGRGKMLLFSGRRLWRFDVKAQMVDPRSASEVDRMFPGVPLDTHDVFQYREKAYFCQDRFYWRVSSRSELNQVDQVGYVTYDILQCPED
T4 sequence (P22894 99-262): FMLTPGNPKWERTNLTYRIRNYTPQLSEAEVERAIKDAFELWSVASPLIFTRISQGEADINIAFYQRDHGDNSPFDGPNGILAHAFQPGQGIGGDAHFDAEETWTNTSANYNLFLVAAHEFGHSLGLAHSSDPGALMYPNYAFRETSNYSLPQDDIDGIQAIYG
T3 sequence (P39900 100-263): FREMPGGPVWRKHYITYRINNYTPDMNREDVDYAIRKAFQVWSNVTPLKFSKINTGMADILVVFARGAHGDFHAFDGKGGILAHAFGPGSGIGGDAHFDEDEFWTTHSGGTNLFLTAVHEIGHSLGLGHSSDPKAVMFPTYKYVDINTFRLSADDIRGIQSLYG

The term IC50 denotes the point on the concentration scale where inhibition reaches its midpoint. Turning to `O=C(Nc1ccc(-c2ccc(S(=O)(=O)N[C@H](Cc3ccccc3)C(=O)O)cc2)cc1)c1ccccc1` [VI-2], the IC50 was 371 nM at MMP-2; 73.6 nM against MMP-13; greater than 10000 nM on MMP-12; greater than 10000 nM against MMP-8; greater than 10000 nM at MMP-9.

With `O=C(Nc1ccc(-c2ccc(S(=O)(=O)N[C@@H](Cc3ccccc3)C(=O)O)cc2)cc1)c1ccc2ccccc2c1` [VI-36], the IC50 at MMP-2 is greater than 10000 nM; at MMP-13, 65.1 nM; against MMP-12 it was 7970 nM; at MMP-8 it was greater than 10000 nM; on MMP-9, greater than 10000 nM.

Regarding `COc1ccc2cc(C#Cc3ccc(-c4ccc(S(=O)(=O)N[C@@H](C(=O)O)C(C)C)cc4)cc3)ccc2c1` [III-20], the IC50 against MMP-2 was 167 nM; at MMP-13, 15 nM; at MMP-12, 128 nM; against MMP-8, 154 nM; on MMP-9, greater than 10000 nM.

`COc1ccc2cc(C#Cc3ccc(-c4ccc(S(=O)(=O)N[C@H](CCC(=O)O)C(=O)O)cc4)cc3)ccc2c1` [III-27]: the IC50 at MMP-2 was 58.9 nM; against MMP-13 it was 2.71 nM; against MMP-12 it was 36.8 nM; at MMP-8 it was 33.3 nM; at MMP-9 it was greater than 10000 nM.

Turning to `COc1ccc2cc(C#Cc3ccc(-c4ccc(S(=O)(=O)NC(Cc5ccc(F)cc5)C(=O)O)cc4)cc3)ccc2c1` (stereo not shown) [III-47], the IC50 against MMP-2 was greater than 10000 nM; against MMP-13 it was 143 nM; on MMP-12, greater than 10000 nM; against MMP-8, greater than 10000 nM; at MMP-9, greater than 10000 nM.

On to `COc1cccc(C(=O)Nc2ccc(-c3ccc(S(=O)(=O)N[C@H](C)C(=O)O)cc3)cc2)c1` [VI-16], for which the IC50 on MMP-2 is 563 nM; at MMP-13 it was 77.1 nM; against MMP-12, 1020 nM; against MMP-8, 1100 nM; at MMP-9, greater than 10000 nM.

Consider `CSCC[C@H](NS(=O)(=O)c1ccc(-c2ccc(C#Cc3ccc4ccccc4c3)cc2)cc1)C(=O)O` [III-10], for which the IC50 against MMP-2 was 374 nM; against MMP-13, 2.86 nM; against MMP-12, 29.7 nM; against MMP-8, 25.9 nM; on MMP-9, greater than 10000 nM.

Consider `C[C@@H](NS(=O)(=O)c1ccc(-c2ccc(NC(=O)c3ccc(OC(F)(F)F)cc3)cc2)cc1)C(=O)O` [VI-21], for which the IC50 was 105 nM against MMP-2; 36.8 nM on MMP-13; 522 nM against MMP-12; greater than 10000 nM against MMP-8; greater than 10000 nM on MMP-9.

On to `COc1ccc2cc(C#Cc3ccc(-c4ccc(S(=O)(=O)N[C@H](CC(=O)O)C(=O)O)cc4)cc3)ccc2c1` [III-26], for which the IC50 is 5410 nM at MMP-2; 3.85 nM against MMP-13; greater than 10000 nM against MMP-12; 519 nM against MMP-8; greater than 10000 nM at MMP-9.

Take `O=C(Nc1ccc(-c2ccc(S(=O)(=O)N[C@H](Cc3ccccc3)C(=O)O)cc2)cc1)c1cccs1` [VI-7]: the IC50 against MMP-2 was found to be 156 nM; at MMP-13, 33.3 nM; against MMP-12 it was 611 nM; at MMP-8, 2350 nM; on MMP-9 it was 4340 nM.

For the molecule `COc1ccc2cc(C#Cc3ccc(-c4ccc(S(=O)(=O)N[C@@H](C)C(=O)O)cc4)cc3)ccc2c1` [III-18], the IC50 is greater than 10000 nM on MMP-2; 19.9 nM at MMP-13; greater than 10000 nM at MMP-12; greater than 10000 nM against MMP-8; greater than 10000 nM at MMP-9.

With `CC(C)C[C@@H](NS(=O)(=O)c1ccc(-c2ccc(C#Cc3ccc4ccccc4c3)cc2)cc1)C(=O)O` [III-6], the IC50 was 499 nM against MMP-2; 15.1 nM at MMP-13; 363 nM at MMP-12; 261 nM on MMP-8; greater than 10000 nM at MMP-9.

Turning to `CC(C)(C)[C@H](NS(=O)(=O)c1ccc(-c2ccc(NC(=O)c3cc4ccccc4s3)cc2)cc1)C(=O)O` [VI-49], the IC50 is 241 nM against MMP-2; 10 nM against MMP-13; 98.8 nM against MMP-12; 158 nM at MMP-8; greater than 10000 nM at MMP-9.

Consider `COc1ccc2cc(C#Cc3ccc(-c4ccc(S(=O)(=O)N[C@@H](Cc5ccccc5)C(=O)O)cc4)cc3)ccc2c1` [III-29], for which the IC50 against MMP-2 was greater than 10000 nM; against MMP-13, 78.8 nM; against MMP-12, greater than 10000 nM; at MMP-8, 5300 nM; at MMP-9 it was greater than 10000 nM.
